Test results reported in patent US20210205638A1, “PARATHYROID HORMONE AND REGENERATION OF DEGENERATIVE DISCS DISEASE” (THE JOHNS HOPKINS UNIVERSITY, priority 2017, published 2021).

Key:
[1] = test system: TGF-β; test: ELISA of total and active TGF-β in NP tissue of aged mice; assay type: in vivo, mouse; conditions: 18-month-old mice
Method: For cAMP assays, confluent cells were grown in 35-mm six-well plates starved overnight by incubation in serum-free α-MEM at 37° C. The cells were then treated with 100 nM human of human PTH (1-34; Bachem Calif., Inc.) for 1 h. Cellular cAMP was extracted and the concentration measured with the Biotrak enzyme immunoassay system (GE Healthare, Inc., Princeton, HJ). We determined the concentration of total and active TGF-β in the NP tissue using the ELISA Development Kit (R&D Systems) according to the manufacturer's instructions.

[2] = molecular target: T1, PTH1R (Mus musculus, UniProt P41593); test: Primary cilia visualization and co-localization in NP cells; assay type: cell-based
T1 construct: endogenous in cells; host or cells: primary mouse nucleus pulposus (NP) cells isolated from intervertebral discs of 15-day old male mice
T1 sequence (P41593 27-591): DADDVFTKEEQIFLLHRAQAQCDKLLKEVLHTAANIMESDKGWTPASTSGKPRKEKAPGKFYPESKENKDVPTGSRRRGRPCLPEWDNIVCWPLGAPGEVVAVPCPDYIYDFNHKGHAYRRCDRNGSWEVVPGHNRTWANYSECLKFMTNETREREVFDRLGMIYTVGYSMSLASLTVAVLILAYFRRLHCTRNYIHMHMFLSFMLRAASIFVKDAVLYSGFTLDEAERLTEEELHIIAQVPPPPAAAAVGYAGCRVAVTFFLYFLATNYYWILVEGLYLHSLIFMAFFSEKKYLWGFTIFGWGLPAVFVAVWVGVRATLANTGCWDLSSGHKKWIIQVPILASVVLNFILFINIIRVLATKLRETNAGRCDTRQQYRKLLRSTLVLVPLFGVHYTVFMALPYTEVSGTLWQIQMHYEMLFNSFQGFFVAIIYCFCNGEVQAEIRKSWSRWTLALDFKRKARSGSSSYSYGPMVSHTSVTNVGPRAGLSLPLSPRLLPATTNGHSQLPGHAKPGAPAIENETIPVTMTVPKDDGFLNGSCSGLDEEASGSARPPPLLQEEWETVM
Method: The localization of PTH signaling components within NP cells was investigated through immunocytochemistry after 48 hours of serum starvation (DMEM, 0.5% FBS, 1% P/S). Cells were treated with PTH (recombinant human PTH, […], Bachem Calif., Inc. King of Prussia, Pa., USA.) or shear stress (1 dyn/cm^2) with times of exposure for 30 minutes, fixed and stained for acetylated α-tubulin of primary cilia, PTH1R (Abcam, 1:100) and pCREP (Abcam, 1:500). Coverslips were mounted with Fluoroshield-DAPI. All cells were imaged using a Zeiss LSM710 META Confocal Laser Scanning microscope fitted with a 63× objective. Region of interest were selected manually using ImageJ software. The intensity profiles along the cilia have been performed by tracing a line across the length of the primary cilia and measuring intensity along this line using ImageJ software. Average intensities in the ciliary region, were measured on at least 30 ciliated cells per condition.

CC[C@H](C)[C@H](NC(=O)[C@H](CCC(=O)O)NC(=O)[C@H](CO)NC(=O)[C@@H](NC(=O)[C@@H](N)CO)C(C)C)C(=O)N[C@@H](CCC(N)=O)C(=O)N[C@@H](CC(C)C)C(=O)N[C@@H](CCSC)C(=O)N[C@@H](Cc1cnc[nH]1)C(=O)N[C@@H](CC(N)=O)C(=O)N[C@@H](CC(C)C)C(=O)NCC(=O)N[C@@H](CCCCN)C(=O)N[C@@H](Cc1cnc[nH]1)C(=O)N[C@@H](CC(C)C)C(=O)N[C@@H](CC(N)=O)C(=O)N[C@@H](CO)C(=O)N[C@@H](CCSC)C(=O)N[C@@H](CCC(=O)O)C(=O)N[C@@H](CCCN=C(N)N)C(=O)N[C@H](C(=O)N[C@@H](CCC(=O)O)C(=O)N[C@@H](Cc1c[nH]c2ccccc12)C(=O)N[C@@H](CC(C)C)C(=O)N[C@@H](CCCN=C(N)N)C(=O)N[C@@H](CCCCN)C(=O)N[C@@H](CCCCN)C(=O)N[C@@H](CC(C)C)C(=O)N[C@@H](CCC(N)=O)C(=O)N[C@@H](CC(=O)O)C(=O)N[C@H](C(=O)N[C@@H](Cc1cnc[nH]1)C(=O)N[C@@H](CC(N)=O)C(=O)N[C@@H](Cc1ccccc1)C(=O)O)C(C)C)C(C)C [PTH (1-34), teriparatide]
level of active TGF-β in IVDs [1]: increased | total TGF-β level [1]: not changed | start of translocation of PTH1R to cilia [2]: 10 min | translocation of PTH1R to cilia [2]: stimulated translocation of PTH1R to cilia significantly | pCREB in cilia ([2]; co-immunostaining with acetylated tubulin): increased | PTH-enhanced transport of PTH1R to cilia ([2]; knockdown of pallidin with siRNA): blocked
